As a reminder, the IC50 is the midpoint of a concentration-inhibition curve. High values mean weaker potency, low ones greater potency.

This assay addresses alpha-glucosidase (Saccharomyces cerevisiae). Kind of assay: Inhibition of alpha-glucosidase (unknown origin) using p-nitrophenyl alpha-D-glucopyranoside as substrate preincubated for 15 mins followed by substrate addition measured after 30 mins by spectrophotometric method.
As for `O=C1NC(=O)/C(=C/c2ccc(OCN3C(=O)c4ccccc4C3=O)c([N+](=O)[O-])c2)S1`, the half-inhibitory concentration (IC50) stood at 22.48 µM.

`O=C1NC(=S)S/C1=C\c1ccc(OCN2C(=O)c3ccccc3C2=O)cc1` registered an IC50 of 7.91 µM.

For `O=C1NC(=S)S/C1=C\c1ccccc1OCN1C(=O)c2ccccc2C1=O`, the half-maximal inhibitory concentration (IC50) is greater than 100 µM.

For the molecule `CCOc1cc(/C=C2\SC(=S)NC2=O)ccc1OCN1C(=O)c2ccccc2C1=O`, the 50% inhibitory concentration (IC50) came to 7.72 µM.

Consider `O=C1NC(=S)S/C1=C\c1cc(Cl)ccc1OCN1C(=O)c2ccccc2C1=O`, for which the IC50 is 34.82 µM.

In turn, `O=C1NC(=O)/C(=C/c2ccc(OCN3C(=O)c4ccccc4C3=O)cc2)S1` displayed a concentration for half-maximal inhibition (IC50) of 25.6 µM.

In the case of `O=C1NC(=S)S/C1=C\c1cccc(OCN2C(=O)c3ccccc3C2=O)c1`, the IC50 was determined as 33.98 µM.

Molecule `O=C1NC(=O)/C(=C/c2cc(Cl)ccc2OCN2C(=O)c3ccccc3C2=O)S1` displayed an IC50 greater than 100 µM.

As for `O=C1NC(=S)S/C1=C\c1cc([N+](=O)[O-])ccc1OCN1C(=O)c2ccccc2C1=O`, the IC50 worked out at 35.79 µM.

As for `O=C1NC(=O)/C(=C/c2ccc(OCN3C(=O)c4ccccc4C3=O)c(Cl)c2)S1`, the IC50 turned out to be 20.95 µM.

For the molecule `CCOc1cc(/C=C2\SC(=O)NC2=O)ccc1OCN1C(=O)c2ccccc2C1=O`, the half-inhibitory concentration (IC50) stood at 29.26 µM.

In turn, `O=C1NC(=O)/C(=C/c2ccccc2OCN2C(=O)c3ccccc3C2=O)S1` registered an IC50 greater than 100 µM.

For `COc1cc(/C=C2\SC(=S)NC2=O)ccc1OCN1C(=O)c2ccccc2C1=O`, the IC50 amounted to 16.11 µM.

`O=C1NC(=O)/C(=C/c2cccc(OCN3C(=O)c4ccccc4C3=O)c2)S1`: the IC50 is greater than 100 µM.

In turn, `COc1cc(/C=C2\SC(=O)NC2=O)cc(OC)c1OCN1C(=O)c2ccccc2C1=O` registered an IC50 greater than 100 µM.

Consider `COc1cc(/C=C2\SC(=S)NC2=O)cc(OC)c1OCN1C(=O)c2ccccc2C1=O`, for which the IC50 is 39.81 µM.

In turn, `O=C1NC(=S)S/C1=C\c1ccc(OCN2C(=O)c3ccccc3C2=O)c([N+](=O)[O-])c1` registered a concentration for half-maximal inhibition (IC50) of 6.59 µM.

Take `COc1cccc(/C=C2\SC(=S)NC2=O)c1OCN1C(=O)c2ccccc2C1=O`: the IC50 is greater than 100 µM.

As to `COc1cccc(/C=C2\SC(=O)NC2=O)c1OCN1C(=O)c2ccccc2C1=O`, the IC50 is greater than 100 µM.

`O=C1NC(=O)/C(=C/c2cc([N+](=O)[O-])ccc2OCN2C(=O)c3ccccc3C2=O)S1` returned an IC50 of 50.45 µM.

The molecule `O=C1NC(=S)S/C1=C\c1ccc(OCN2C(=O)c3ccccc3C2=O)c(Cl)c1` returned an IC50 of 5.44 µM.

`COc1cc(/C=C2\SC(=O)NC2=O)ccc1OCN1C(=O)c2ccccc2C1=O` had a half-inhibitory concentration (IC50) of 35.14 µM.
